Columns and labels:
Assay in all cases: Kinase selectivity assay
Format in all cases: biochemical
SRC = target: T1, SRC (Homo sapiens, UniProt P12931); conditions: target SRC; read-out: CP1 IC50
T1 construct: assay run by ICE Biosciences (Beijing, China)
Description: (§1) The selectivity of CP1 for PRDX1 was evaluated through kinase selectivity assays against other PRDX family members and a panel of kinases. The experiments were conducted by ICE Biosciences (Beijing, China).

ZAP70 = target: T2, ZAP70 (Homo sapiens, UniProt P43403); conditions: target ZAP70; read-out: CP1 IC50
T2 construct: ICE Biosciences (Beijing, China), a contract laboratory that ran the assay
Description: as §1

MERTK = MERTK (Homo sapiens, UniProt Q12866); conditions: target MERTK; read-out: CP1 IC50
Description: as §1

EGFR = target: T3, EGFR (Homo sapiens, UniProt P00533); conditions: target EGFR; read-out: CP1 IC50
T3 construct: ICE Biosciences (Beijing, China), ran the assays
Description: as §1

KIT = KIT (Homo sapiens, UniProt P10721); conditions: target KIT; read-out: CP1 IC50
Description: as §1

EPHB1 = EPHB1 (Homo sapiens, UniProt P54762)
Description: as §1

EPHA1 = target: T4, EPHA1 (Homo sapiens, UniProt P21709); conditions: target EPHA1; read-out: CP1 IC50
T4 construct: ICE Biosciences (Beijing, China), ran the assays
Description: as §1

EPHA2 = target: T5, EPHA2 (Homo sapiens, UniProt P29317); conditions: target EPHA2; read-out: CP1 IC50
T5 construct: ICE Biosciences (Beijing, China), ran the assays
Description: as §1

TYRO3 = target: T6, TYRO3 (Homo sapiens, UniProt Q06418); conditions: target TYRO3; read-out: CP1 IC50
T6 construct: ICE Biosciences (Beijing, China), a contract laboratory that ran the assay
Description: as §1

FGFR4 = target: T7, FGFR4 (Homo sapiens, UniProt P22455); conditions: target FGFR4; read-out: CP1 IC50
T7 construct: assay run by ICE Biosciences (Beijing, China)
Description: as §1

LYN = LYN (Homo sapiens, UniProt P07948); conditions: target LYN; read-out: CP1 IC50
Description: as §1

PTK6 = target: T8, PTK6 (Homo sapiens, UniProt Q13882); conditions: target PTK6; read-out: CP1 IC50
T8 construct: assay run by ICE Biosciences (Beijing, China)
Description: as §1

CSF1R = target: T9, CSF1R (Homo sapiens, UniProt P07333); conditions: target CSF1R; read-out: CP1 IC50
T9 construct: ICE Biosciences (Beijing, China), ran the assays
Description: as §1

FLT4 = target: T10, FLT4 (Homo sapiens, UniProt P35916); conditions: target FLT4; read-out: CP1 IC50
T10 construct: assay run by ICE Biosciences (Beijing, China)
Description: as §1

CSK = target: T11, CSK (Homo sapiens, UniProt P41240); conditions: target CSK; read-out: CP1 IC50
T11 construct: ICE Biosciences (Beijing, China), ran the assays
Description: as §1

FES = target: T12, FES (Homo sapiens, UniProt P07332); conditions: target FES; read-out: CP1 IC50
T12 construct: assay run by ICE Biosciences (Beijing, China)
Description: as §1

FLT3 = target: T13, FLT3 (Homo sapiens, UniProt P36888); conditions: target FLT3; read-out: CP1 IC50
T13 construct: assay run by ICE Biosciences (Beijing, China)
Description: as §1

FGFR2 = target: T14, FGFR2 (Homo sapiens, UniProt P21802); conditions: target FGFR2; read-out: CP1 IC50
T14 construct: assay run by ICE Biosciences (Beijing, China)
Description: as §1

SRMS = target: T15, SRMS (Homo sapiens, UniProt Q9H3Y6); conditions: target SRMS; read-out: CP1 IC50
T15 construct: assay run by ICE Biosciences (Beijing, China)
Description: as §1

YES1 = target: T16, YES1 (Homo sapiens, UniProt P07947); conditions: target YES1; read-out: CP1 IC50
T16 construct: ICE Biosciences (Beijing, China), a contract laboratory that ran the assay
Description: as §1

ROS1 = target: T17, ROS1 (Homo sapiens, UniProt P08922); conditions: target ROS1; read-out: CP1 IC50
T17 construct: assay run by ICE Biosciences (Beijing, China)
Description: as §1

ERBB4 = ERBB4 (Homo sapiens, UniProt Q15303); conditions: target ERBB4; read-out: CP1 IC50
Description: as §1

TXK = target: T18, TXK (Homo sapiens, UniProt P42681); conditions: target TXK; read-out: CP1 IC50
T18 construct: ICE Biosciences (Beijing, China), a contract laboratory that ran the assay
Description: as §1

FGFR1 = target: T19, FGFR1 (Homo sapiens, UniProt P11362); conditions: target FGFR1; read-out: CP1 IC50
T19 construct: assay run by ICE Biosciences (Beijing, China)
Description: as §1

PRDX6 = target: T20, PRDX6 (Homo sapiens, UniProt P30041)
T20 construct: ICE Biosciences (Beijing, China), ran the assays
Description: as §1

LCK = LCK (Homo sapiens, UniProt P06239); conditions: target LCK; read-out: CP1 IC50
Description: as §1

EPHB2 = EPHB2 (Homo sapiens, UniProt P29323); conditions: target EPHB2; read-out: CP1 IC50
Description: as §1

PRDX4 = target: T21, PRDX4 (Homo sapiens, UniProt Q13162); conditions: target PRDX4; read-out: CP1 IC50
T21 construct: ICE Biosciences (Beijing, China), ran the assays
Description: as §1

ITK = ITK (Homo sapiens, UniProt Q08881); conditions: target ITK; read-out: CP1 IC50
Description: as §1

IGF1R = target: T22, IGF1R (Homo sapiens, UniProt P08069); conditions: target IGF1R; read-out: CP1 IC50
T22 construct: ICE Biosciences (Beijing, China), ran the assays
Description: as §1

ABL2 = target: T23, ABL2 (Homo sapiens, UniProt P42684); conditions: target ABL2; read-out: CP1 IC50
T23 construct: ICE Biosciences (Beijing, China), ran the assays
Description: as §1

NTRK2 = NTRK2 (Homo sapiens, UniProt Q16620)
Description: as §1

AXL = target: T24, AXL (Homo sapiens, UniProt P30530); conditions: target AXL; read-out: CP1 IC50
T24 construct: ICE Biosciences (Beijing, China), ran the assays
Description: as §1

HCK = target: T25, HCK (Homo sapiens, UniProt P08631); conditions: target HCK; read-out: CP1 IC50
T25 construct: ICE Biosciences (Beijing, China), ran the assays
Description: as §1

Measured: IC50

T18 sequence (P42681 whole entry, species assumed): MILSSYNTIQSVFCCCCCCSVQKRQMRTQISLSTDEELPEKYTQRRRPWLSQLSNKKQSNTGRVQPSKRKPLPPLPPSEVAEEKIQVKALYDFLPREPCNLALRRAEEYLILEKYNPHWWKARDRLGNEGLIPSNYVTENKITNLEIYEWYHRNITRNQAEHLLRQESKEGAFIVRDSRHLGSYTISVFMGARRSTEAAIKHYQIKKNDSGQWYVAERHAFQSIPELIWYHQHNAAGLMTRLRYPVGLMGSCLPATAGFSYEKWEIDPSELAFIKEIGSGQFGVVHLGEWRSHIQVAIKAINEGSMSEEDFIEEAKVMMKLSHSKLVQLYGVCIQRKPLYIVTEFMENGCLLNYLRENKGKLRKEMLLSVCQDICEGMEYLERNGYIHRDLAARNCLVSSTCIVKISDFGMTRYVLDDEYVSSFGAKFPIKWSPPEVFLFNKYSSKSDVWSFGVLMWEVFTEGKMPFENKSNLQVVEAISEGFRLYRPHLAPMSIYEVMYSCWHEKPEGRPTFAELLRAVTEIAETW
T9 sequence (P07333 20-972): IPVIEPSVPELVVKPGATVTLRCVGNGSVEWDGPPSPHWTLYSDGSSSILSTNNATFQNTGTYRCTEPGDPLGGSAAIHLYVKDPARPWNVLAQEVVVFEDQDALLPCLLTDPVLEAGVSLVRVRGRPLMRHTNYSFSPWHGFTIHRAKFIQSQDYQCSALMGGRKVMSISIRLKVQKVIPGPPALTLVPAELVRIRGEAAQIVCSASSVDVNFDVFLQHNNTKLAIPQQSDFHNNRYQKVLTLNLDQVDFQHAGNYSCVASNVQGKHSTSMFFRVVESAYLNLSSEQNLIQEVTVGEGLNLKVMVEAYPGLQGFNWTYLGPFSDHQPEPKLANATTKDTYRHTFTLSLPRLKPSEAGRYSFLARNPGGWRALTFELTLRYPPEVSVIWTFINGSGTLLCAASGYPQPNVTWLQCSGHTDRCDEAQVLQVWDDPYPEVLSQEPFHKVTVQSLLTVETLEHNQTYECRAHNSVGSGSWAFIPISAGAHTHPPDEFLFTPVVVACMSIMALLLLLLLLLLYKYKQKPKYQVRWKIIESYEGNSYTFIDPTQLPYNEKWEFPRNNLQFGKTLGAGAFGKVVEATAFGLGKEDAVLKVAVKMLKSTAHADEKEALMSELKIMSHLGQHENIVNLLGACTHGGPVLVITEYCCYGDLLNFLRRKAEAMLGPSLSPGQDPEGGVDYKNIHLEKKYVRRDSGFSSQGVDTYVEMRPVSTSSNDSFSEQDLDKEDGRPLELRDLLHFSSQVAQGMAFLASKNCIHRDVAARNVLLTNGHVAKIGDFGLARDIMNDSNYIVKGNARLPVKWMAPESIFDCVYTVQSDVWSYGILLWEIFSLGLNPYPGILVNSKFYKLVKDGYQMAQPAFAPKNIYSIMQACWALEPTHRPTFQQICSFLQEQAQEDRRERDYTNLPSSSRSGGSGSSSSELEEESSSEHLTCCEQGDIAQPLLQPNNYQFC
Chain of EPHB1 (P54762 18-984): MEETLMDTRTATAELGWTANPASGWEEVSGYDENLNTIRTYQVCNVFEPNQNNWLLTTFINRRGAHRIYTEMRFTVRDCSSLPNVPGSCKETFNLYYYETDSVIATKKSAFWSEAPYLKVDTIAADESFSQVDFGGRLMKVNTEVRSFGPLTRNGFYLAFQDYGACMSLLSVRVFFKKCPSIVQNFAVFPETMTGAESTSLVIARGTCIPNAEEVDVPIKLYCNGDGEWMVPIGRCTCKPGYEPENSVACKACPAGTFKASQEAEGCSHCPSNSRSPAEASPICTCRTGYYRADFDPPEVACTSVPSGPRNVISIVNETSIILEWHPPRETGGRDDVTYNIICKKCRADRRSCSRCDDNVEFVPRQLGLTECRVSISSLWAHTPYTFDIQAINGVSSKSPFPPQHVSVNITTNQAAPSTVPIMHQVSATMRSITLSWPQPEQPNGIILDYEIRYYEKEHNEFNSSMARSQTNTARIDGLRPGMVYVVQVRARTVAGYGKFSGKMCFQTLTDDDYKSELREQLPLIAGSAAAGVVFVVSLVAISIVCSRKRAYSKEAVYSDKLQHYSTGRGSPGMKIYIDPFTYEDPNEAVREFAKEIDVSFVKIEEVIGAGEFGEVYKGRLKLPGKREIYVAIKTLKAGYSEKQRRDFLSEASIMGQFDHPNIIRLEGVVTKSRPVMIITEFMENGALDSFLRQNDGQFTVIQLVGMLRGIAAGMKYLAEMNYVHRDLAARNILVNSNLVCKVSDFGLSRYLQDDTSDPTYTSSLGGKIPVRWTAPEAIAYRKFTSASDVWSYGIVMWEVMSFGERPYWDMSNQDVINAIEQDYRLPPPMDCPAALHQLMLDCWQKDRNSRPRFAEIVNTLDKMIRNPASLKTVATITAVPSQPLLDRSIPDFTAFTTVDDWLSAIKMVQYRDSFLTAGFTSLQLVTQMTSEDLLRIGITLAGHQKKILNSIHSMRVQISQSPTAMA
T20 sequence (P30041 whole entry): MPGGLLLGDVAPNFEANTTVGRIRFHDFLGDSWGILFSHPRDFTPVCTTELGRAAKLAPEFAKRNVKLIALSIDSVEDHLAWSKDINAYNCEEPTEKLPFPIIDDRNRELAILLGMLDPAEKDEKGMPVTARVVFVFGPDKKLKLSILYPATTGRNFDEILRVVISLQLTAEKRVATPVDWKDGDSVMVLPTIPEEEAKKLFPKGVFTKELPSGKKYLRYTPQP
Chain of EPHB2 (P29323 19-1055): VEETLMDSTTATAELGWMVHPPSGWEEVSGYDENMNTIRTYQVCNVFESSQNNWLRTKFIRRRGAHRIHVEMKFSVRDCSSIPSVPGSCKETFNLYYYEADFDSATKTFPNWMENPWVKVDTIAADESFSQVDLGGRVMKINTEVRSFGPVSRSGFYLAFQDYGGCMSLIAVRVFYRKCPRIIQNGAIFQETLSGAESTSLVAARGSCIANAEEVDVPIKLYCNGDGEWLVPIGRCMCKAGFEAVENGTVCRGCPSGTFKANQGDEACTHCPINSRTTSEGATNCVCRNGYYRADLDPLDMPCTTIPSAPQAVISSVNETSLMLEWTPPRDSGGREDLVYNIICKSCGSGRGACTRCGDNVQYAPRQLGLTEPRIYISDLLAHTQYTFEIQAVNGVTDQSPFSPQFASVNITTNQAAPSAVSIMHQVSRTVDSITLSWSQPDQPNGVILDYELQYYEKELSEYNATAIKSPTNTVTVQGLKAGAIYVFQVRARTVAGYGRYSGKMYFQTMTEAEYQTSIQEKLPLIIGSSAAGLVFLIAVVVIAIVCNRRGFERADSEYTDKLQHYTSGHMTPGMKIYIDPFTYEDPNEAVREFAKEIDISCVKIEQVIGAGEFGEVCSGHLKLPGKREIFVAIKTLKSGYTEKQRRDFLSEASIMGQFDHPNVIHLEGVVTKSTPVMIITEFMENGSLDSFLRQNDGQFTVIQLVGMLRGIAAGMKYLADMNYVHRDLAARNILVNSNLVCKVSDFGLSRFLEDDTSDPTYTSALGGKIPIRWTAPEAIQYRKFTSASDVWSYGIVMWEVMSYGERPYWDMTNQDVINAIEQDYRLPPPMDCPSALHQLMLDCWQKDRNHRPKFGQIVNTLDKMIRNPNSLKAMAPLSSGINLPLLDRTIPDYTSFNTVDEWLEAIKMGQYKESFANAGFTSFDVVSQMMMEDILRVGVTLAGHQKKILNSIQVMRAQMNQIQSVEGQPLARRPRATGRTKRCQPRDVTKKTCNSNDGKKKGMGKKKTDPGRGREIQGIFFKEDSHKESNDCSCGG
T6 sequence (Q06418 41-890, species assumed): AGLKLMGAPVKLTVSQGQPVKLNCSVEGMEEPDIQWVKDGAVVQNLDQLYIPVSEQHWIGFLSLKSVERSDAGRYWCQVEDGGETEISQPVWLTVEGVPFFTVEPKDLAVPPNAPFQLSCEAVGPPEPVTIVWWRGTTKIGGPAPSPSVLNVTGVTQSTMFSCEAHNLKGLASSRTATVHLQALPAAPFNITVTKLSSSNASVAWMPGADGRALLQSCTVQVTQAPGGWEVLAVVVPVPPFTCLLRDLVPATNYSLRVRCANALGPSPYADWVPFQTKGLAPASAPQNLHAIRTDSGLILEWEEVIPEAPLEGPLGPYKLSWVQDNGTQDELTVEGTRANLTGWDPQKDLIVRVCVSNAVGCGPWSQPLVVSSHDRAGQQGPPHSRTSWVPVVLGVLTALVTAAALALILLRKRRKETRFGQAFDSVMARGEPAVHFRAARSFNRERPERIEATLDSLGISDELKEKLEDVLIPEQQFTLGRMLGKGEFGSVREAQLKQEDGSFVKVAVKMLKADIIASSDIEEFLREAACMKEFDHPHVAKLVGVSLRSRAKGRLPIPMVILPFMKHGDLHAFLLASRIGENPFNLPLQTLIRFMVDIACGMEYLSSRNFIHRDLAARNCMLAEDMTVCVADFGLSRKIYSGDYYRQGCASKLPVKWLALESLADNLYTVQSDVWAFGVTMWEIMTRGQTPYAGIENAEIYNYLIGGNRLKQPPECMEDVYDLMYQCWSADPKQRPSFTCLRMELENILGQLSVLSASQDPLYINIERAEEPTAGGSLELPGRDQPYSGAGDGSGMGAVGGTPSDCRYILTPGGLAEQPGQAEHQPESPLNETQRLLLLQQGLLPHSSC
Chain of LCK (P06239 whole entry): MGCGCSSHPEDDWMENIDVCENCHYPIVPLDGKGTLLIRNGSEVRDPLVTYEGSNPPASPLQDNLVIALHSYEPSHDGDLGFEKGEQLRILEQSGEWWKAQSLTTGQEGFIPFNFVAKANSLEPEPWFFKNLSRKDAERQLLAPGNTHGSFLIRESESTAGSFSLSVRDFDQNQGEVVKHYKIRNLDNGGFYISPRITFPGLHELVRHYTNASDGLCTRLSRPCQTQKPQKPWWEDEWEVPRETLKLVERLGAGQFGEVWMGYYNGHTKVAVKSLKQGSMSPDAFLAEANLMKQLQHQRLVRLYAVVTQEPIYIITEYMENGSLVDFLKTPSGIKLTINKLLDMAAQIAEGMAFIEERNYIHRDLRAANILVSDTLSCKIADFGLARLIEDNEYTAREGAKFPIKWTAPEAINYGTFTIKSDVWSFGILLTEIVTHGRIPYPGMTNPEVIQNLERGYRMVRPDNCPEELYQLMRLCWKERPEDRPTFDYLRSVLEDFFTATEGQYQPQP

CC1=C(CC(=O)/C=C/c2cccc(CO)c2)C(=O)C=C2C1=CC=C1[C@@]2(C)CC[C@@]2(C)C3C[C@](C)(C(=O)CCc4nc(C(O)C(O)O)c(C)nc4C)CC[C@]3(C)CC[C@]12C (stereo partly shown) [CP1]
> 30 µM: all assays above
